Assay results from US11180474B2 (BRISTOL-MYERS SQUIBB COMPANY, priority 2016, dated 2021).
pIC50: −log10 of the molar value. Counter-ions that a name gives are not always drawn.

The compounds below were run against T1, human TLR7 (Homo sapiens, UniProt Q9NYK1) (assay: TLR7 inhibition reporter assay (HEK-Blue cells, SEAP reporter, gardiquimod stimulation)). Conditions: HEK-Blue cells overexpressing human TLR7, gardiquimod 7.5 μM.
T1 construct: host or cells: HEK-Blue cells
T1 sequence (Q9NYK1 27-1049): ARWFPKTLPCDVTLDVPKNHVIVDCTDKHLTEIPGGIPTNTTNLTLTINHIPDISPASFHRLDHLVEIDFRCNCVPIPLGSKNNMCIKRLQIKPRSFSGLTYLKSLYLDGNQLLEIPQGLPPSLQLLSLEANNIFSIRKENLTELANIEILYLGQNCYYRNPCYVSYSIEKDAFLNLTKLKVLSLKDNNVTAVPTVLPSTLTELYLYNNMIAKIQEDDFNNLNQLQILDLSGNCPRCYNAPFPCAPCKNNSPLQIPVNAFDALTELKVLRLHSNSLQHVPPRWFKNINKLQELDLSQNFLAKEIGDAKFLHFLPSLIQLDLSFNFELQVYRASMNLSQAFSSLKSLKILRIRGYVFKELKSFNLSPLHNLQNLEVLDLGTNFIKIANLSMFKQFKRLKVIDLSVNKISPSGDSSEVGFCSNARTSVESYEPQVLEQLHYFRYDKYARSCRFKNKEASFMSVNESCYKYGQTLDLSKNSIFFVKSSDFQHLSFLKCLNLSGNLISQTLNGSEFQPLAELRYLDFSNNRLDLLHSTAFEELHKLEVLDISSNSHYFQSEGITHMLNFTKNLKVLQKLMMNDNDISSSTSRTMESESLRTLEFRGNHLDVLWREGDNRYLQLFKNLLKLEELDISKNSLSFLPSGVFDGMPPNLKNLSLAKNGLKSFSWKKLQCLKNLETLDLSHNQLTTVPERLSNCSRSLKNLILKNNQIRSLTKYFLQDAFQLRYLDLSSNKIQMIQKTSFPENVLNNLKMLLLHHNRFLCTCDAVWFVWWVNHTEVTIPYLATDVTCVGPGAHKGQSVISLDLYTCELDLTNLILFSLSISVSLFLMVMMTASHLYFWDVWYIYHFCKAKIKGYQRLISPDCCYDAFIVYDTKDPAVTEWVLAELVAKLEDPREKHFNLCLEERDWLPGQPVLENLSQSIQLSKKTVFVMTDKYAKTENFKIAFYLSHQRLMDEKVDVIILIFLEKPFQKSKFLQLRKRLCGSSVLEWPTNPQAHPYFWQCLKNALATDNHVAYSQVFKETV
Type: cell-based
Summary of the method: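 Cells (15000/well for TLR7, 20,000 for TLR8) were treated with compounds over 0.05 nM-50 μM final. After 22 h at 37° C, 5% CO2, SEAP was measured with HEK-Blue Detection reagent; percent inhibition was taken as reduction of agonist-plus-DMSO signal relative to a known inhibitor.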
`COc1ccc(-c2[nH]c3ccc(C4CCN(C(=O)CNCC(C)(C)CO)CC4)cc3c2C(C)C)cc1OC` [Example 219, 1-(4-(2-(3,4-dimethoxyphenyl)-3-isopropyl-1H-indol-5-yl)piperidin-1-yl)-2-((3-hydroxy-2,2-dimethylpropyl)amino)ethan-1-one] showed a pIC50 of 7.48.
For `CCc1c(-c2ccc(OC)c(OC)c2)[nH]c2ccc(C3CCN(C(=O)CNC4CCC(N(C)C)CC4)CC3)cc12` (stereo not drawn) [Example 162, 1-(4-(2-(3,4-dimethoxyphenyl)-3-ethyl-1H-indol-5-yl)piperidin-1-yl)-2-((4-(dimethylamino)cyclohexyl)amino)ethan-1-one], the pIC50 was 7.06.
`CCc1c(-c2ccc(OC)c(OC)c2)[nH]c2ccc(C3CCN(C(=O)C(C)(C)OC(C)=O)CC3)cc12` [Example 175, 1-(4-(2-(3,4-dimethoxyphenyl)-3-ethyl-1H-indol-5-yl)piperidin-1-yl)-2-methyl-1-oxopropan-2-yl acetate] showed a pIC50 of 5.77.
Work on `COc1ccc(-c2[nH]c3ccc(C4CCN(C(=O)CNC5(CO)CCCC5)CC4)cc3c2C(C)C)cc1OC` [Example 213, 1-(4-(2-(3,4-dimethoxyphenyl)-3-isopropyl-1H-indol-5-yl)piperidin-1-yl)-2-((1-(hydroxymethyl)cyclopentyl)amino)ethan-1-one] yielded a pIC50 of 7.51.
`COc1ccc(-c2[nH]c3ccc(C4CCN(C5CCN(C(C)C)CC5)CC4)cc3c2C)cc1OC` [Example 10, 2-(3,4-dimethoxyphenyl)-5-(1′-isopropyl-[1,4′-bipiperidin]-4-yl)-3-methyl-1H-indole] gave a pIC50 of 6.22.
Compound `COc1ccc(-c2[nH]c3ccc(C4CCN(C5CCNCC5)CC4)cc3c2C(C)C)cc1OC` [Example 197, 5-([1,4′-bipiperidin]-4-yl)-2-(3,4-dimethoxyphenyl)-3-isopropyl-1H-indole dihydrochloride] has a pIC50 of 6.95.
With `CCc1c(-c2ccc(OC)c(OC)c2)[nH]c2ccc(C3CCN(C(=O)C4(C)CCNCC4)CC3)cc12` [Example 187, (4-(2-(3,4-dimethoxyphenyl)-3-ethyl-1H-indol-5-yl)piperidin-1-yl)(4-methylpiperidin-4-yl)methanone] the pIC50 was 6.78.
In the case of `CNCCN1CCC(c2ccc3c(c2)c(C)c(-c2ccc(OC)c(OC)c2)n3C)CC1` [Example 114, 2-(4-(2-(3,4-dimethoxyphenyl)-1,3-dimethyl-1H-indol-5-yl)piperidin-1-yl)-N-methylethan-1-amine], the pIC50 was 5.28.
In the case of `CCc1c(-c2ccc(OC)c(OC)c2)[nH]c2ccc(C3CCN(CCNC)CC3)cc12` [Example 155, 2-(4-(2-(3,4-dimethoxyphenyl)-3-ethyl-1H-indol-5-yl)piperidin-1-yl)-N-methylethanamine di-trifluoroacetic acid], the pIC50 was 6.87.
For `CCc1c(-c2ccc(OC)c(OC)c2)[nH]c2ccc(C3CCN(C4CCN(Cc5cnc(C)o5)CC4)CC3)cc12` [Example 124, 5-((4-(2-(3,4-dimethoxyphenyl)-3-ethyl-1H-indol-5-yl)-[1,4′-bipiperidin]-1′-yl)methyl)-2-methyloxazole], the pIC50 was 5.73.
In the case of `CCc1c(-c2ccc(OC)c(OC)c2)[nH]c2ccc(C3CCN(C4CCN(Cc5csnn5)CC4)CC3)cc12` [Example 130, 4-((4-(2-(3,4-dimethoxyphenyl)-3-ethyl-1H-indol-5-yl)-[1,4′-bipiperidin]-1′-yl)methyl)-1,2,3-thiadiazole], the pIC50 was 5.38.
`COc1ccc(-c2[nH]c3ccc(C4CCN(C(=O)CNC56CC7CC(CC(C7)C5)C6)CC4)cc3c2C(C)C)cc1OC` [Example 217, 2-(((3s,5s,7s)-adamantan-1-yl)amino)-1-(4-(2-(3,4-dimethoxyphenyl)-3-isopropyl-1H-indol-5-yl)piperidin-1-yl)ethan-1-one] was tested, and the pIC50 was 6.39.
`COc1ccc(-c2[nH]c3cc(C)c(C4CCN(C5CCN(C(C)C)CC5)CC4)cc3c2C)cc1OC` [Example 115, 2-(3,4-dimethoxyphenyl)-5-(1′-isopropyl-[1,4′-bipiperidin]-4-yl)-3,6-dimethyl-1H-indole-di-trifluoroacetic acid] showed a pIC50 of 6.88.
Compound `COc1ccc(-c2[nH]c3ccc(C4CCN(C5CCN(CC(C)C)CC5)CC4)cc3c2C(C)C)cc1OC` [Example 199, 2-(3,4-dimethoxyphenyl)-5-(1′-isobutyl-[1,4′-bipiperidin]-4-yl)-3-isopropyl-1H-indole] has a pIC50 of 6.92.
In the case of `CCc1c(-c2ccc(OC)c(OC)c2)[nH]c2ccc(C3CCN(C4CCN(C)CC4)CC3)cc12` [Example 150, 2-(3,4-dimethoxyphenyl)-3-ethyl-5-(1′-methyl-[1,4′-bipiperidin]-4-yl)-1H-indole], the pIC50 was 5.10.
With `CCc1c(-c2ccc(OC)c(OC)c2)[nH]c2ccc(C3CCN(C(=O)CNc4nccs4)CC3)cc12` [Example 177, 1-(4-(2-(3,4-dimethoxyphenyl)-3-ethyl-1H-indol-5-yl)piperidin-1-yl)-2-(thiazol-2-ylamino)ethanone] the pIC50 was 6.92.
In the case of `COc1ccc(-c2[nH]c3ccc(C4CCN(C5CCN(CC(C)C)CC5)CC4)cc3c2Cl)cc1OC` [Example 120, 3-chloro-2-(3,4-dimethoxyphenyl)-5-(1′-isobutyl-[1,4′-bipiperidin]-4-yl)-1H-indole di-trifluoroacetic acid], the pIC50 was 5.56.
In the case of `CCc1c(-c2ccc(OC)c(OC)c2)[nH]c2ccc(C3CCN(C4CCN(CC)CC4)CC3)cc12` [Example 149, 2-(3,4-dimethoxyphenyl)-3-ethyl-5-(1′-ethyl-[1,4′-bipiperidin]-4-yl)-1H-indole], the pIC50 was 6.46.
Work on `CCN(CC)C(=O)CN(C)CC(=O)N1CCC(c2ccc3[nH]c(-c4ccc(OC)c(OC)c4)c(C(C)C)c3c2)CC1` [Example 203, 2-((2-(4-(2-(3,4-dimethoxyphenyl)-3-isopropyl-1H-indol-5-yl)piperidin-1-yl)-2-oxoethyl)(methyl)amino)-N,N-diethylacetamide, TFA] yielded a pIC50 of 6.89.
For `COc1ccc(-c2[nH]c3ccc(C4CCN(C5CCN(CC(C)C)CC5)CC4)cc3c2C)cc1OC` [Example 6, 2-(3,4-dimethoxyphenyl)-5-(1′-isobutyl-[1,4′-bipiperidin]-4-yl)-3-methyl-1H-indole], the pIC50 was 5.91.
Work on `CCc1c(-c2ccc(OC)c(OC)c2)[nH]c2ccc(C3CCN(C(=O)CN4CCCC(C(=O)N(CC)CC)C4)CC3)cc12` (single isomer, unassigned) [Example 179, 1-(2-(4-(2-(3,4-dimethoxyphenyl)-3-ethyl-1H-indol-5-yl)piperidin-1-yl)-2-oxoethyl)-N,N-diethylpiperidine-3-carboxamide] yielded a pIC50 of 6.55.
`CCc1c(-c2ccc(OC)c(OC)c2)[nH]c2ccc(C3CCN(C4CCN(Cc5ccsc5)CC4)CC3)cc12` [Example 142, 2-(3,4-dimethoxyphenyl)-3-ethyl-5-(1′-(thiophen-3-ylmethyl)-[1,4′-bipiperidin]-4-yl)-1H-indole] was tested, and the pIC50 was 6.05.
For `CCc1c(-c2ccc(OC)c(OC)c2)[nH]c2ccc(C3CCN(C4CCN(Cc5c[nH]cn5)CC4)CC3)cc12` [Example 125, 5-(1′-((1H-imidazol-4-yl)methyl)-[1,4′-bipiperidin]-4-yl)-2-(3,4-dimethoxyphenyl)-3-ethyl-1H-indole], the pIC50 was 6.74.
Compound `COc1ccc(-c2[nH]c3ccc(C4CCN(C5CCN(Cc6ccccc6)CC5)CC4)cc3c2C)cc1OC` [Example 9, 5-(1′-benzyl-[1,4′-bipiperidin]-4-yl)-2-(3,4-dimethoxyphenyl)-3-methyl-1H-indole] has a pIC50 of 5.81.
